Experimental data from ChEMBL document CHEMBL1201862, “PubChem BioAssay data set” (2004).
Activity calls are given as the source filed them. Rule as the data show it: actives have a measured IC50 and inactives only a lower limit.

Molecular target: Envelope glycoprotein gp160 (Human immunodeficiency virus 1, UniProt Q6QLK5)
Test: cell-free HIV fusion peptide-binding blockers – biochemical, uHTS, fluorescence dequenching, […] (AID 1986)

Sequence of Envelope glycoprotein gp160 (Q6QLK5 whole entry, the tested form may be a part): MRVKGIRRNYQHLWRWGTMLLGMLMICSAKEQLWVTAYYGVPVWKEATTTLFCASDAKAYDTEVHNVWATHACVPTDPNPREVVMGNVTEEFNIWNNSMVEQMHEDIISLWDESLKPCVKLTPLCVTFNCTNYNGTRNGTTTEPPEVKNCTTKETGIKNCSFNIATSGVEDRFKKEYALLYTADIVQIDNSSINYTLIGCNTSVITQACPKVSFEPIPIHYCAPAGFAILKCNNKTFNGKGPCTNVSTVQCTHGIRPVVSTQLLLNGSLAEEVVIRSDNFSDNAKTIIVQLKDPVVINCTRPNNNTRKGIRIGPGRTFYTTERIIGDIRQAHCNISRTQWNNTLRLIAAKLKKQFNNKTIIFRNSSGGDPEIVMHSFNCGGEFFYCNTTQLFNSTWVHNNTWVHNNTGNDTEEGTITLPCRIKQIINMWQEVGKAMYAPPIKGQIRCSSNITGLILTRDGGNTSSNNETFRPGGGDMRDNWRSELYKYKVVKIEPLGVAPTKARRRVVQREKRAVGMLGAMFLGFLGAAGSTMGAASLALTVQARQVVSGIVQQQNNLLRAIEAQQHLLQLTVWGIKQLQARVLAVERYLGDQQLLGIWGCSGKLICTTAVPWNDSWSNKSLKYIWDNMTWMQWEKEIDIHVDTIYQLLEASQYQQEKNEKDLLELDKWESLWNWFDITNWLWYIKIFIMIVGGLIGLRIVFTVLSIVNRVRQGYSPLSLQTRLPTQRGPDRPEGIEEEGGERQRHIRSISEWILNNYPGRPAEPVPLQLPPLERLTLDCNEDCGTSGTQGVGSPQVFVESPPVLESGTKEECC

SMILES | IC50
COc1ccc(C(=O)Nc2ccccc2C(=O)O)cc1NC(=O)C(c1ccccc1)c1ccccc1 | 14.1 µM (active)
CCOC(=O)c1c(N2C(=O)Nc3cc(Cl)c(Cl)cc3N2O)sc2c1CCCCC2 | 22.3 µM (active)
